Measured values as given in US6177592A, “Compounds” (priority 1997, dated 2001).

Tested on: tumor necrosis factor
Experiment: TNF production from LPS-induced celiac macrophage
Assay type: cell-based, mouse (CDF1)
Method: (2) Paraffin oil (Cosmo Bio) (2 ml) was intraperitoneally administered to female CDF1 mice of eight weeks age to induce celiac macrophage (M.phi.). After one week from administration of paraffin oil, 4 ml of an RPMI-1640 medium (Gibco) was intraperitoneally infused, well massaged and recovered to give celiac cells.
The celiac cells were washed with an RPMI-1640 medium twice and suspended in an PPMI1640 medium containing 10% of fetal calf serum (FCS; High-Clone) to adjust the cell concentration to 1×10^6 cells/ml. The cell solution (1 ml) prepared as such was planted on a 24-well plate and incubated in a CO2 incubator at 37° C. for two hours. Non-adhesion cells contained in the supernatant liquid after incubation was removed and the adhesion cells were used as celiac M . […]
After the incubation, 100 μl of 100 ng/ml LPS (manufactured by Sigma) was added and incubation was conducted for 24 hours more. After completion of the incubation, the supernatant liquid was recovered therefrom and the amount of TNF-a produced therein was determined using a commercially available ELISA kit (manufactured by Endogen).

With `N[C@@H](CCC(=O)N[C@@H](CSC1C=C(O)C(=O)C1)C(=O)NCC(=O)O)C(=O)O` (some centres unmarked) [GM, 2-hydroxy-4-glutathion-S-yl-2-cyclopenten-1-one] the “inhibition activity of TNF production (in words)” value (Example 8) was “inhibition activity of the production of tumor necrosis factor” and the minimal effective concentration (Mus musculus, Macrophage, read-out: concentration which significantly inhibited TNF production, LPS-induced, 24 hours) was at least 10 µM.
